Each structure is given as a SMILES string.

T1 sequence (Q9Y5N1 with tags, fused parts or gaps E19D): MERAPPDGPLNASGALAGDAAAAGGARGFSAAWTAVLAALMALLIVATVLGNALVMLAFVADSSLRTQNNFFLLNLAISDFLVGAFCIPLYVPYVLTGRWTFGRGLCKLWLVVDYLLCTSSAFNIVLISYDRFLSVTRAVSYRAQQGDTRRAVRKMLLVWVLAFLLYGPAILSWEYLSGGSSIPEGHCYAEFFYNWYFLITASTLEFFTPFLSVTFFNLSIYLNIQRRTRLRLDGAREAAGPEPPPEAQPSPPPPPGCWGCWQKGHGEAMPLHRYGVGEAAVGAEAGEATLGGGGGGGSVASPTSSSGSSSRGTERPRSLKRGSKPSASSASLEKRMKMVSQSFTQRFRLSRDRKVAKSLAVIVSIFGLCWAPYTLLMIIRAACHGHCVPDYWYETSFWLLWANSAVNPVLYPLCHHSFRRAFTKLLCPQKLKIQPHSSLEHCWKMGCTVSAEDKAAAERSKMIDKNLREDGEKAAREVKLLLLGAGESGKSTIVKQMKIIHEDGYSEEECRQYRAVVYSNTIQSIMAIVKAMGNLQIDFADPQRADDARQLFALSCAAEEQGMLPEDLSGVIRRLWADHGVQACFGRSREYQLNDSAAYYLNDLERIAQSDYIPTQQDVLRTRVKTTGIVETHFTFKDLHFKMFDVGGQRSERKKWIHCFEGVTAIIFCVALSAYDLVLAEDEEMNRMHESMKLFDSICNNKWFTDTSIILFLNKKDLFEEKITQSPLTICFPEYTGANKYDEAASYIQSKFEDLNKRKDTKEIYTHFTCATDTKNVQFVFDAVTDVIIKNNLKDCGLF

The first assay has as its target T1, chimeric human H3 receptor (Homo sapiens, UniProt Q9Y5N1, E19D).
T1 construct: made in house; host or cells: Sf9 insect cells (baculovirus infection); P2 membrane preparation
In words: Chimeric human H3 receptor GTP binding assay (agonist-stimulated GTP-gamma35S binding, Example 7). The assay is classed as biochemical.
Conditions: not given
The method in brief:
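IC50 values come from non-linear regression of dose-response curves of filter-bound GTP-gamma^35S, counted by scintillation. Membranes were from infected Sf9 cells carrying receptor plus G-protein subunits, 35 μg/tube, with 10 μM GDP present.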
Background: GTPγS is a poorly hydrolysed GTP analogue; its binding reports G protein activation.
`O=C(CN1CCN(c2cccc(C(F)(F)F)c2)CC1)N1CCN(C2CCCC2)CC1` [Compound 827, 1-cyclopentyl-4-({4-[3-(trifluoromethyl)phenyl]piperazin-1-yl}acetyl)piperazine]: the Ki – broadly, a dissociation constant, usually derived from enzyme kinetics or from competition with a known ligand – is under 1000 nM.

Still in this assay, the particulars now being: "*" in Ki of Table II; assay of Example 7; read-out: Ki.
Take `CCC(C)N1CCN(C(=O)CN2CCC(N3CCCCCC3)CC2)CC1` (stereo not shown) [Compound 481, 1-{1-[2-(4-sec-butylpiperazin-1-yl)-2-oxoethyl]piperidin-4-yl}azepane]: the Ki was under 1000 nM.

Staying with this assay, now noted: Table II "Ki", symbol "*": Ki in the assay of Example 7; read-out: Ki.
Turning to `CCc1cccc(-c2cnc(N3CCN(CC(=O)N4CCN(C5CCC5)CC4)CC3)cn2)c1` [Compound 932, 2-{4-[2-(4-cyclobutylpiperazin-1-yl)-2-oxoethyl]piperazin-1-yl}-5-(3-ethylphenyl)pyrazine], the inhibitory constant (Ki) was under 1000 nM.
Same read-out and setting: to `CCC(C)N1CCN(C(=O)CN2CCN(c3cccc(F)c3)CC2)CC1` (stereo not shown) [Compound 874, 1-sec-butyl-4-{[4-(3-fluorophenyl)piperazin-1-yl]acetyl}piperazine] belongs under 1000 nM.
The same measure, in the same setting: to `O=C(CN1CCN(c2cnc(-c3cccc(OC(F)(F)F)c3)cn2)CC1)N1CCN(C2CCC2)CC1` [Compound 937, 2-{4-[2-(4-cyclobutylpiperazin-1-yl)-2-oxoethyl]piperazin-1-yl}-5-[3-(trifluoromethoxy)phenyl] pyrazine] belongs under 1000 nM; to `O=C(CN1CCN(c2ccc([N+](=O)[O-])cc2)CC1)N1CCN(C2CCCC2)CC1` [Compound 840, 1-cyclopentyl-4-{[4-(4-nitrophenyl)piperazin-1-yl]acetyl}piperazine], under 1000 nM.
On the same count and under the same terms, then `CC(C)N1CCN(C(=O)CN2CCN(C(=O)C3CCCO3)CC2)CC1` (stereo not shown) [Compound 852, 1-isopropyl-4-{[4-(tetrahydrofuran-2-ylcarbonyl)piperazin-1-yl]acetyl}piperazine], with under 1000 nM; and `O=C(CN1CCN(c2cnc(-c3ccc4c(c3)OCO4)cn2)CC1)N1CCN(C2CCC2)CC1` [Compound 896, 2-(1,3-benzodioxol-5-yl)-5-{4-[2-(4-cyclobutylpiperazin-1-yl)-2-oxoethyl]piperazin-1-yl}pyrazine], with under 1000 nM.

The same assay, now with this note: Table II, "*" in Ki; assay of Example 7; read-out: Ki.
Turning to `CCc1cccc(-c2ccc(N3CCN(CC(=O)N4CCN(C5CCC5)CC4)CC3)cc2)c1` [Compound 747, 1-cyclobutyl-4-{[4-(3′-ethylbiphenyl-4-yl)piperazin-1-yl]acetyl}piperazine], the Ki was under 1000 nM.
Regarding `O=C(CN1CCN(c2ccc(-c3cccc(C(F)(F)F)c3)cc2)CC1)N1CCN(C2CCC2)CC1` [Compound 589, 1-cyclobutyl-4-({4-[3′-(trifluoromethyl)biphenyl-4-yl]piperazin-1-yl}acetyl)piperazine], the Ki was under 1000 nM.
Same read-out and setting: to `CC(C)c1ccccc1-c1ccc(N2CCN(CC(=O)N3CCN(C4CCC4)CC3)CC2)cc1` [Compound 709, 1-cyclobutyl-4-{[4-(2′-isopropylbiphenyl-4-yl)piperazin-1-yl]acetyl}piperazine] belongs under 1000 nM; to `O=C(CN1CCN(c2ccc(C(=O)N3CCC(F)(F)CC3)cc2)CC1)N1CCN(C2CCC2)CC1` [Compound 647, 1-cyclobutyl-4-[(4-{4-[(4,4-difluoropiperidin-1-yl)carbonyl]phenyl}piperazin-1-yl)acetyl]piperazine], under 1000 nM.

Still in this assay, the particulars now being: Table II; assay of Example 7; "*" in Ki; read-out: Ki.
In the case of `COc1ccc(-c2cnc(N3CCN(CC(=O)N4CCN(C5CCC5)CC4)CC3)cn2)cc1C` [Compound 948, 2-{4-[2-(4-cyclobutylpiperazin-1-yl)-2-oxoethyl]piperazin-1-yl}-5-(4-methoxy-3-methylphenyl)pyrazine], the inhibition constant Ki was under 1000 nM.
On the same count and under the same terms, then `COc1cc(-c2ccc(N3CCN(CC(=O)N4CCN(C5CCC5)CC4)CC3)nn2)cc(OC)c1OC` [Compound 1031, 3-{4-[2-(4-cyclobutylpiperazin-1-yl)-2-oxoethyl]paperazin-1-yl}-6-(3,4,5-trimethoxyphenyl) pyridazine], with under 1000 nM; and `O=C(CN1CCN(c2cccc(C(=O)N3CCSCC3)c2)CC1)N1CCN(C2CCC2)CC1` [Compound 1091, 4-(3-{4-[2-(4-cyclobutylpiperazin-1-yl)-2-oxoethyl]piperazin-1-yl}benzoyl) thiomorpholine], with under 1000 nM; and `O=C(CN1CCN(c2ccc(-c3cccc4c3oc3ccccc34)nn2)CC1)N1CCN(C2CCC2)CC1` [Compound 1044, 3-{4-[2-(4-cyclobutylpiperazin-1-yl)-2-oxoethyl]piperazin-1-yl}-6-dibenzo[b,d]furan-4-ylpyridazine], with under 1000 nM.
`O=C(CN1CCN(c2cnc(-c3ccc(Cl)c(Cl)c3)cn2)CC1)N1CCN(C2CCC2)CC1` [Compound 964, 2-{4-[2-(4-cyclobutylpiperazin-1-yl)-2-oxoethyl]piperazin-1-yl}-5-(3,4-dichlorophenyl)pyrazine]: the Ki was under 1000 nM.
Same read-out and setting: to `CC(C)NC(=O)c1cccc(N2CCN(CC(=O)N3CCN(C4CCC4)CC3)CC2)c1` [Compound 1080, 3-{4-[2-(4-cyclobutylpiperazin-1-yl)-2-oxoethyl]piperazin-1-yl}-N-isopropylbenzamide] belongs under 1000 nM; to `CC(C)Oc1cccc(-c2cnc(N3CCN(CC(=O)N4CCN(C5CCC5)CC4)CC3)cn2)c1` [Compound 942, 2-{4-[2-(4-cyclobutylpiperazin-1-yl)-2-oxoethyl]piperazin-1-yl}-5-(3-isopropoxyphenyl) pyrazine], under 1000 nM.
Take `O=C(NC1CCCC1)c1cccc(N2CCN(CC(=O)N3CCN(C4CCC4)CC3)CC2)c1` [Compound 1081, 3-{4-[2-(4-cyclobutylpiperazin-1-yl)-2-oxoethyl]piperazin-1-yl}-N-cyclopentylbenzamide]: the Ki was under 1000 nM.
Same read-out and setting: then `CCN(C(=O)c1cccc(N2CCN(CC(=O)N3CCN(C4CCC4)CC3)CC2)c1)C1CCCCC1` [Compound 1069, 3-{4-[2-(4-cyclobutylpiperazin-1-yl)-2-oxoethyl]piperazin-1-yl}-N-cyclohexyl-N-ethylbenzamide], with under 1000 nM; and `CCCOc1ccc(-c2ccc(N3CCN(CC(=O)N4CCN(C5CCC5)CC4)CC3)nn2)cc1` [Compound 1037, 3-{4-[2-(4-cyclobutylpiperazin-1-yl)-2-oxoethyl]piperazin-1-yl}-6-(4-propoxyphenyl) pyridazine], with under 1000 nM; and `COc1ccc(C(C)C)cc1-c1ccc(N2CCN(CC(=O)N3CCN(C4CCC4)CC3)CC2)nn1` [Compound 1040, 3-{4-[2-(4-cyclobutylpiperazin-1-yl)-2-oxoethyl]piperazin-1-yl}-6-(5-isopropyl-2-methoxyphenyl) pyridazine], with under 1000 nM.
The same measure, in the same setting: to `O=C(NCC(F)(F)F)c1cccc(N2CCN(CC(=O)N3CCN(C4CCC4)CC3)CC2)c1` [Compound 1077, 3-{4-[2-(4-cyclobutylpiperazin-1-yl)-2-oxoethyl]piperazin-1-yl}-N-(2,2,2-trifluoroethyl)benzamide] belongs under 1000 nM; to `O=C(CN1CCC(N2CCOCC2)CC1)N1CCN(C2CCC2)CC1` [Compound 1115, 4-{1-[2-(4-cyclobutylpiperazin-1-yl)-2-oxoethyl]piperidin-4-yl}morpholine], under 1000 nM.

Still in this assay, the particulars now being: assay of Example 7; "*" in Ki of Table II; read-out: Ki.
With `O=C1OCc2cc(N3CCN(CC(=O)N4CCN(C5CCC5)CC4)CC3)ccc21` [Compound 1156, 5-{4-[2-(4-cyclobutylpiperazin-1-yl)-2-oxoethyl]piperazin-1-yl}-2-benzofuran-1(3H)-one], the Ki was under 1000 nM.
Same read-out and setting: then `CCOC(=O)c1cccc(-c2ccc(N3CCN(CC(=O)N4CCN(C5CCC5)CC4)CC3)nn2)c1` [Compound 1196, ethyl 3-(6-{4-(2-(4-cyclobutylpiperazin-1-yl)-2-oxoethyl]piperazin-1-yl}pyridazin-3-yl)benzoate], with under 1000 nM; and `CC(C)NC(=O)c1ccc(N2CCN(CC(=O)N3CCN(C4CCC4)CC3)CC2)nc1` [Compound 1182, 6-{4-[2-(4-cyclobutylpiperazin-1-yl)-2-oxoethyl]piperazin-1-yl}-N-isopropylnicotinamide], with under 1000 nM.

Still in this assay, the particulars now being: assay of Example 7; symbol * in column headed Ki of Table II; read-out: Ki.
With `COc1cccc(CN2C(=O)c3cccnc3C23CCN(CC(=O)N2CCN(C4CCC4)CC2)CC3)c1` [Compound 430, 1-[2-(4-cyclobutylpiperazin-1-yl)-2-oxoethyl]-6′-(3-methoxybenzyl) spiro[piperidine-4,7-pyrrolo[3,4-b]pyridin]-5′(6′H)-one], the Ki was under 1000 nM.
Same read-out and setting: to `COc1ccc(Br)cc1CC(=O)N1CCN(CC(=O)N2CCN(C3CCC3)CC2)CC1` [Compound 409, 1-[(5-bromo-2-methoxyphenyl)acetyl]-4-[2-(4-cyclobutylpiperazin-1-yl)-2-oxoethyl]piperazine] belongs under 1000 nM; to `O=C1NC2(CCN(CC(=O)N3CCN(C4CCC4)CC3)CC2)c2ccccc21` [Compound 434, 1′-[2-(4-cyclobutylpiperazin-1-yl)-2-oxoethyl]spiro[isoindole-1,4′-piperidin]-3(2H)-one], under 1000 nM; to `CC(=O)c1ccc(N2CCN(CC(=O)N3CCN(C4CCC4)CC3)CC2)c(Cl)c1` [Compound 295, 1-(3-chloro-4-{4-[2-(4-cyclobutylpiperazin-1-yl)-2-oxoethyl]piperazin-1-yl}phenyl)ethanone], under 1000 nM.
On the same count and under the same terms, then `CC(C)N1C(=O)c2ccccc2C12CCN(CC(=O)N1CCN(C3CCC3)CC1)CC2` [Compound 426, 1-[2-(4-cyclobutylpiperazin-1-yl)-2-oxoethyl]-2-isopropylspiro[isoindole-1,4′-piperidin]-3(2H)-one], with under 1000 nM; and `COc1cc(N2CCN(CC(=O)N3CCN(C4CCC4)CC3)CC2)ccc1Cl` [Compound 344, 1-(4-chloro-3-methoxyphenyl)-4-[2-(4-cyclobutylpiperazin-1-yl)-2-oxoethyl]piperazine], with under 1000 nM.

The values above are taken from patent publication US7851474B2, “Dipiperazinyl ketones and related analogues” (Neurogen Corporation, priority 2005, dated 2010).
